How the values were obtained:
[1] = system: production of prostaglandin E2 by human fibroblasts; assay: Inhibition of Production of Prostaglandin E2 in Human Fibroblasts (IL-1 stimulation); type: cell-based; conditions: Fibroblast; human fibroblasts under stimulation with IL-1
Outline: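 Human fibroblasts stimulated with IL-1, with prostaglandin E2 production measured in the presence of compound as a cellular read-out of cPLA2 inhibition.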

cPLA2 = molecular target: T1, cPLA2 (Homo sapiens, UniProt P47712); assay: cPLA2 Inhibitory Activity; type: biochemical; conditions: 1-palmitoyl-2-[14C]-arachidonoyl-sn-glycero-3-phosphocholine 2.5 μM, sn-1,2-dioleoylglycerol 1.25 μM; pH 7.5, 15 min at 37° C.
T1 sequence (P47712 1-749): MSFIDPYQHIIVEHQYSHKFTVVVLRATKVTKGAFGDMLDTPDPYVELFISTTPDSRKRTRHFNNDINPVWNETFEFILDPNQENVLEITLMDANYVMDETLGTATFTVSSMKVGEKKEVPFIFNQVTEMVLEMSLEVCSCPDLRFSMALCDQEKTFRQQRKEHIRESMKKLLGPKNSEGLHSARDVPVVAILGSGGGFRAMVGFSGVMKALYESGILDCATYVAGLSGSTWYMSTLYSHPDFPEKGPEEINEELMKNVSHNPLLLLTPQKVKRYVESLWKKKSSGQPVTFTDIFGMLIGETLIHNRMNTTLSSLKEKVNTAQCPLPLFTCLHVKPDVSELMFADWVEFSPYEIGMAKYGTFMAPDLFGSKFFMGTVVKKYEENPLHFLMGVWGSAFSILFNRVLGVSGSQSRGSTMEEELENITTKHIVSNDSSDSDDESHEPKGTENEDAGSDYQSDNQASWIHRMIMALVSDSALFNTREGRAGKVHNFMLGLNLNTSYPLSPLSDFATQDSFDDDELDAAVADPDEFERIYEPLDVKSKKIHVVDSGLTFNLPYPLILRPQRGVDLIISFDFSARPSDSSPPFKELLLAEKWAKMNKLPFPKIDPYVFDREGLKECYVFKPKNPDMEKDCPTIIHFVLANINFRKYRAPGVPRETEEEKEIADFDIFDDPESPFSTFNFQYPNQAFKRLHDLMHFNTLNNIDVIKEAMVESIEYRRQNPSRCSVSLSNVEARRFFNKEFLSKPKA
Outline: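 Radiometric assay in 50 mM HEPES pH 7.5 with 1 mM CaCl2, 150 mM NaCl, 0.1 mg/ml BSA and 1.7 mM DTT; compound and substrate added, reaction started with enzyme, 15 min at 37° C. Released fatty acids extracted (Dole method), counted by liquid scintillation versus no-compound control.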

| IC50 (cPLA2) | SMILES | IC50 [1] |
| --- | --- | --- |
| 260 nM | O=C1NC(=O)/C(=C/c2ccc(S(=O)(=O)NC[C@@H]3C[C@@H](OCc4ccccc4-c4ccccc4)CN3C(=O)c3ccccc3C(=O)c3ccc(F)cc3)cc2)S1 [Compound A-62] | 1100 nM |
| 4800 nM | O=C1NC(=O)/C(=C/c2ccc(C(=O)NC[C@@H]3C[C@@H](OCc4ccccc4-c4ccccc4)CN3C(=O)CCC(=O)c3ccc(F)cc3)cc2)S1 [Compound A-6] | 8900 nM |
| 370 nM | O=C1NC(=O)/C(=C/c2ccc(C(=O)NC[C@@H]3C[C@@H](OCc4ccccc4-c4ccccc4)CN3C(=O)c3ccccc3C(=O)C3CCCCC3)cc2)S1 [Compound A-14] | 330 nM |
| 25 nM | O=C1NC(=O)/C(=C/c2ccc(C(=O)NC[C@@H]3C[C@@H](OCc4ccc5ccccc5c4-c4ccccc4)CN3C(=O)c3ccccc3C(=O)c3ccc(F)cc3)cc2)S1 [Compound A-39] | 330 nM |
| 90 nM | O=C1NC(=O)/C(=C/c2ccc(C(=O)NC[C@@H]3C[C@@H](OCc4ccccc4Oc4ccccc4)CN3C(=O)c3ccccc3C(=O)c3ccc(F)cc3)cc2)S1 [Compound A-48] | 620 nM |
| 34 nM | O=C1NC(=O)/C(=C/c2ccc(C(=O)NC[C@@H]3C[C@@H](SCc4ccccc4-c4ccccc4)CN3C(=O)c3ccccc3C(=O)c3ccc(F)cc3)cc2)S1 [Compound I-5] | 490 nM |
| 200 nM | O=C1NC(=O)/C(=C/c2ccc(C(=O)NC[C@@H]3C[C@H](OCc4ccccc4-c4ccccc4)CN3C(=O)c3ccccc3C(=O)c3ccc(F)cc3)cc2)S1 [Compound Q-3] | 490 nM |
| 140 nM | CN(Cc1ccccc1-c1ccccc1)[C@@H]1C[C@@H](CNC(=O)c2ccc(/C=C3\SC(=O)NC3=O)cc2)N(C(=O)c2ccccc2C(=O)c2ccc(F)cc2)C1 [Compound M-6] | 1500 nM |
| 280 nM | O=C1NC(=O)/C(=C/c2ccc(CC[C@@H]3C[C@@H](OCc4ccccc4-c4ccccc4)CN3C(=O)c3ccccc3C(=O)c3ccc(F)cc3)cc2)S1 [Compound E-2] | 1100 nM |
| 780 nM | CN(C[C@@H]1C[C@@H](OCc2ccccc2-c2ccccc2)CN1C(=O)c1ccccc1C(=O)c1ccc(F)cc1)C(=O)c1ccc(/C=C2\SC(=O)NC2=O)cc1 [Compound G-1] | 980 nM |
| 1000 nM | O=C1NC(=O)/C(=C/c2ccc(C(=O)NC[C@@H]3C[C@@H](OCc4ccccc4-c4ccccc4)CN3C(=O)c3ccccc3C(=O)c3cccs3)cc2)S1 [Compound A-19] | 160 nM |

More lines, now with the values behind:

| SMILES | IC50 (cPLA2) | IC50 [1] |
| --- | --- | --- |
| O=C1NC(=O)/C(=C/c2ccc(C(=O)NC[C@@H]3C[C@@H](Oc4ccc5ccccc5c4-c4ccccc4)CN3C(=O)c3ccccc3C(=O)c3ccc(F)cc3)cc2)S1 [Compound A-86] | 28 nM | 93 nM |
| O=C1NC(=S)S/C1=C\c1ccc(S(=O)(=O)NC[C@@H]2C[C@@H](SCc3ccccc3-c3ccccc3)CN2C(=O)c2ccccc2C(=O)c2ccc(F)cc2)s1 [Compound I-10] | 760 nM | 320 nM |
| O=C1NC(=O)/C(=C/c2ccc(/C=C/C[C@@H]3C[C@@H](OCc4ccccc4-c4ccccc4)CN3C(=O)c3ccccc3C(=O)c3ccc(F)cc3)cc2)S1 [Compound E-14] | 98 nM | 5600 nM |
| O=C1NC(=O)/C(=C/c2ccc(C(=O)NC[C@@H]3C[C@@H](N(CC4CC4)C(c4ccccc4)c4ccccc4)CN3C(=O)c3ccccc3C(=O)c3ccc(F)cc3)cc2)S1 [Compound M-14] | 27 nM | 1400 nM |
| CN(Cc1ccccc1-c1ccccc1)[C@@H]1C[C@@H](CNC(=O)c2ccc(/C=C3\SC(=S)NC3=O)cc2)N(C(=O)c2ccccc2C(=O)c2ccc(F)cc2)C1 [Compound M-7] | 270 nM | 1500 nM |
| Cc1ccccc1-c1ccccc1O[C@@H]1C[C@@H](CNC(=O)c2ccc(/C=C3\SC(=O)NC3=O)cc2)N(C(=O)c2ccccc2C(=O)c2ccc(F)cc2)C1 [Compound A-97] | 51 nM | 640 nM |
| O=C1NC(=O)/C(=C/c2ccc(NC(=O)[C@@H]3C[C@@H](OCc4ccccc4-c4ccccc4)CN3C(=O)c3ccccc3C(=O)c3ccc(F)cc3)s2)S1 [Compound B-8] | 1000 nM | 2700 nM |
| O=C1NC(=O)/C(=C/c2ccc(C(=O)NC[C@@H]3C[C@@H](Oc4ccccc4Cc4ccccc4)CN3C(=O)c3ccccc3C(=O)c3ccc(F)cc3)cc2)S1 [Compound A-83] | 53 nM | 230 nM |
| O=C1NC(=O)/C(=C/c2ccc(C(=O)NC[C@@H]3C[C@@H](Oc4cccc5ccccc45)CN3C(=O)c3ccccc3C(=O)c3ccc(F)cc3)cc2)S1 [Compound A-73] | 110 nM | 100 nM |
| O=C1NC(=O)/C(=C/c2ccc(C(=O)NC[C@@H]3C[C@@H](Oc4cccc5c4CCCC5)CN3C(=O)c3ccccc3C(=O)c3ccc(F)cc3)cc2)S1 [Compound A-77] | 100 nM | 350 nM |
| O=C1NC(=S)S/C1=C\c1ccc(NC(=O)[C@@H]2C[C@@H](OCc3ccccc3-c3ccccc3)CN2C(=O)c2ccccc2C(=O)c2ccc(F)cc2)s1 [Compound B-7] | 1000 nM | 8100 nM |
| O=C1NC(=O)/C(=C/c2ccc(NC(=O)[C@@H]3C[C@@H](SCc4ccccc4-c4ccccc4)CN3C(=O)c3ccccc3C(=O)c3ccc(F)cc3)s2)S1 [Compound J-3] | 430 nM | 5700 nM |
| O=C1NC(=O)/C(=C/c2ccc(NC(=O)[C@@H]3C[C@@H](SCc4ccccc4-c4ccccc4)CN3C(=O)c3ccccc3C(=O)c3ccc(F)cc3)cc2)S1 [Compound J-1] | 84 nM | 120 nM |
| O=C1NC(=O)/C(=C/c2ccc(C=C[C@@H]3C[C@@H](OCc4ccccc4-c4ccccc4)CN3C(=O)c3ccccc3C(=O)c3ccc(F)cc3)cc2)S1 [Compound E-4] | 1100 nM | 1200 nM |
| O=C1NC(=O)/C(=C/c2ccc(C(=O)NC[C@@H]3C[C@@H](Oc4cccc(-c5ccccc5)c4)CN3C(=O)c3ccccc3C(=O)c3ccc(F)cc3)cc2)S1 [Compound A-69] | 72 nM | 190 nM |
| COc1cccc(-c2cccc3ccccc23)c1O[C@@H]1C[C@@H](CNC(=O)c2ccc(/C=C3\SC(=O)NC3=O)cc2)N(C(=O)c2ccccc2C(=O)c2ccc(F)cc2)C1 [Compound A-118] | 8 nM | 2200 nM |
| CC(C)CN(C(c1ccccc1)c1ccccc1)[C@@H]1C[C@@H](CNC(=O)/C=C/c2ccc(/C=C3\SC(=O)NC3=O)cc2)N(C(=O)c2ccccc2C(=O)c2ccc(F)cc2F)C1 [Compound M-21] | 2.1 nM | 310 nM |
| O=C1NC(=S)S/C1=C\c1ccc(S(=O)(=O)NC[C@@H]2C[C@@H](SCc3ccccc3-c3ccccc3)CN2C(=O)c2ccccc2C(=O)c2ccc(F)cc2)cc1 [Compound I-4] | 480 nM | 1300 nM |
| O=C1NC(=O)/C(=C/c2ccc(/C=C\C[C@@H]3C[C@@H](OCc4ccccc4-c4ccccc4)CN3C(=O)c3ccccc3C(=O)c3ccc(F)cc3)cc2)S1 [Compound E-12] | 350 nM | 5700 nM |
| O=C1NC(=O)/C(=C/c2ccc(C(=O)NC[C@@H]3C[C@@H](Oc4ccc(/C=C/c5ccccc5)cc4)CN3C(=O)c3ccccc3C(=O)c3ccc(F)cc3)cc2)S1 [Compound A-82] | 50 nM | 45 nM |
| Cc1ccc(C(=O)c2ccccc2C(=O)N2C[C@H](OCc3ccccc3-c3ccccc3)C[C@H]2C(=O)Nc2ccc(/C=C3\SC(=O)NC3=O)cc2)cc1 [Compound B-5] | 440 nM | 7400 nM |

From patent US6147100A, “Pyrrolidine derivatives having phospholipase A2 inhibitory activity” (Shionogi & Co., Ltd., priority 1997, dated 2000)
